Results reported in patent publication US9968610B2, “Pyrrolopyrimidine derivatives as NR2B NMDA receptor antagonists” (Rugen Holdings (Cayman) Limited, priority 2014, dated 2018).

Tested on: Rats
Test: Electroconvulsive threshold (ECT) test
Format: in vivo, rat
Conditions: p.o. 60 minutes before ECS, theophylline 128 mg/kg, diazepam 16 mg/kg

Structure (SMILES)	pro- or anticonvulsant activity (electroconvulsive threshold)
CN1C(=O)CN=C(c2ccccc2)c2cc(Cl)ccc21 [diazepam]	expected pro- and anticonvulsant activities
Cn1c(=O)c2[nH]cnc2n(C)c1=O [theophylline, Theophylline]	expected pro- and anticonvulsant activities
